Data reported in PubChem BioAssay AID2060494 (Molecular Pharmacology Branch, DTP, NCI, 2025).

System: 435261-313-R-J1-PDC complex spheroid viability
Experiment: Anticancer human tumor 435261-313-R-J1-PDC patient-derived colon adenocarcinoma cell line growth inhibition [GQUAD]
Conditions: for IC50: curve of first compound; for viability, T/C: stronger effect = lower value
How it was run: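 Tumor cells were grown as complex spheroids with HUVEC endothelial cells and mesenchymal stem cells as stroma. G-quadruplex stabilizers were combined with targeted agents over half-log dilutions from near the clinical Cmax, or from 10 microM.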

[1] = second compound 0.0316 µM, first compound 0.0316 µM
[2] = second compound 0.0316 µM, first compound 0.1 µM
[3] = second compound 0.0316 µM, first compound 0.316 µM
[4] = second compound 0.0316 µM, first compound 1 µM
[5] = second compound 0.0316 µM, first compound 3.16 µM
[6] = second compound 0.0316 µM, first compound 10 µM
[7] = second compound 0.1 µM, first compound 0.0316 µM
[8] = second compound 0.1 µM, first compound 0.1 µM
[9] = second compound 0.1 µM, first compound 0.316 µM
[10] = second compound 0.1 µM, first compound 1 µM
[11] = second compound 0.1 µM, first compound 3.16 µM
[12] = second compound 0.1 µM, first compound 10 µM
[13] = second compound 0.316 µM, first compound 0.0316 µM
[14] = second compound 0.316 µM, first compound 0.1 µM
[15] = second compound 0.316 µM, first compound 0.316 µM
[16] = second compound 0.316 µM, first compound 1 µM
[17] = second compound 0.316 µM, first compound 3.16 µM
[18] = second compound 0.316 µM, first compound 10 µM
[19] = second compound 1 µM, first compound 0.0316 µM
[20] = second compound 1 µM, first compound 0.1 µM
[21] = second compound 1 µM, first compound 0.316 µM
[22] = second compound 1 µM, first compound 1 µM
[23] = second compound 1 µM, first compound 3.16 µM
[24] = second compound 1 µM, first compound 10 µM
[25] = second compound 3.16 µM, first compound 0.0316 µM
[26] = second compound 3.16 µM, first compound 0.1 µM
[27] = second compound 3.16 µM, first compound 0.316 µM
[28] = second compound 3.16 µM, first compound 1 µM
[29] = second compound 3.16 µM, first compound 3.16 µM
[30] = second compound 3.16 µM, first compound 10 µM
[31] = second compound 10 µM, first compound 0.0316 µM
[32] = second compound 10 µM, first compound 0.1 µM
[33] = second compound 10 µM, first compound 0.316 µM
[34] = second compound 10 µM, first compound 1 µM
[35] = second compound 10 µM, first compound 3.16 µM
[36] = second compound 10 µM, first compound 10 µM
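Further: spheroids exposed to the agents for seven days before readout.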
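Wherever viability, T/C is given: percent of vehicle control viability with DMSO wells as 100%.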

## CC(C)n1c(=O)n(C)c2cnc3cc(F)c(-c4ccc(OCCCN5CCCCC5)nc4)cc3c21 + Cc1cnc(CNC(=O)c2c(=O)c3ccc(N4CCCN(C)CC4)nc3n3c2sc2ccccc23)cn1
Second compound 0.0316 µM
  IC50: 3.96 µM
Second compound 0.1 µM
  IC50: 4.64 µM
Second compound 0.316 µM
  IC50: 1.08 µM
Second compound 1 µM
  IC50: < 0.0316 µM
Second compound 3.16 µM
  IC50: < 0.0316 µM
Second compound 10 µM
  IC50: < 0.0316 µM
[1]
  viability, T/C: 81.5%
[2]
  viability, T/C: 68%
[3]
  viability, T/C: 74.5%
[4]
  viability, T/C: 56.7%
[5]
  viability, T/C: 61.4%
[6]
  viability, T/C: 32.5%
[7]
  viability, T/C: 61%
[8]
  viability, T/C: 61.6%
[9]
  viability, T/C: 63.3%
[10]
  viability, T/C: 57.8%
[11]
  viability, T/C: 60.9%
[12]
  viability, T/C: 28.6%
[13]
  viability, T/C: 50.7%
[14]
  viability, T/C: 64.7%
[15]
  viability, T/C: 52.8%
[16]
  viability, T/C: 49.3%
[17]
  viability, T/C: 42.9%
[18]
  viability, T/C: 30.9%
[19]
  viability, T/C: 42.4%
[20]
  viability, T/C: 45.1%
[21]
  viability, T/C: 45.7%
[22]
  viability, T/C: 48.1%
[23]
  viability, T/C: 26.1%
[24]
  viability, T/C: 5.54%
[25]
  viability, T/C: 14.6%
[26]
  viability, T/C: 8.86%
[27]
  viability, T/C: 7.48%
[28]
  viability, T/C: 16.6%
[29]
  viability, T/C: 5.15%
[30]
  viability, T/C: 0.23%
[31]
  viability, T/C: 0.18%
[32]
  viability, T/C: 0.2%
[33]
  viability, T/C: 0.2%
[34]
  viability, T/C: 0.18%
[35]
  viability, T/C: 0.29%
[36]
  viability, T/C: 0.16%

## CC1COCCN1c1cc(-c2ccnn2C)c2ccnc(-c3ccn[nH]3)c2n1 (stereo unspecified) + Cc1cnc(CNC(=O)c2c(=O)c3ccc(N4CCCN(C)CC4)nc3n3c2sc2ccccc23)cn1
Second compound 0.0316 µM
  IC50: 0.295 µM
Second compound 0.1 µM
  IC50: 0.425 µM
Second compound 0.316 µM
  IC50: 0.318 µM
Second compound 1 µM
  IC50: < 0.0316 µM
Second compound 3.16 µM
  IC50: < 0.0316 µM
Second compound 10 µM
  IC50: < 0.0316 µM
[1]
  viability, T/C: 72.1%
[2]
  viability, T/C: 54.9%
[3]
  viability, T/C: 54.7%
[4]
  viability, T/C: 35.4%
[5]
  viability, T/C: 36.2%
[6]
  viability, T/C: 23.9%
[7]
  viability, T/C: 61.8%
[8]
  viability, T/C: 59.4%
[9]
  viability, T/C: 52.4%
[10]
  viability, T/C: 42.2%
[11]
  viability, T/C: 30.6%
[12]
  viability, T/C: 21.3%
[13]
  viability, T/C: 51.8%
[14]
  viability, T/C: 57.6%
[15]
  viability, T/C: 50.5%
[16]
  viability, T/C: 37.9%
[17]
  viability, T/C: 26.5%
[18]
  viability, T/C: 15.1%
[19]
  viability, T/C: 36.5%
[20]
  viability, T/C: 41.9%
[21]
  viability, T/C: 34.6%
[22]
  viability, T/C: 26.3%
[23]
  viability, T/C: 13.4%
[24]
  viability, T/C: 9.95%
[25]
  viability, T/C: 22.4%
[26]
  viability, T/C: 21.2%
[27]
  viability, T/C: 11.5%
[28]
  viability, T/C: 4.04%
[29]
  viability, T/C: 3.7%
[30]
  viability, T/C: 2.53%
[31]
  viability, T/C: 0.11%
[32]
  viability, T/C: 0.14%
[33]
  viability, T/C: 0.18%
[34]
  viability, T/C: 0.15%
[35]
  viability, T/C: 0.16%
[36]
  viability, T/C: 0.15%

## CC1COCCN1c1cc(C2(O)CC3CCC(C2)O3)c2cnn(-c3ccn[nH]3)c2n1 (stereo unspecified) + Cc1cnc(CNC(=O)c2c(=O)c3ccc(N4CCCN(C)CC4)nc3n3c2sc2ccccc23)cn1
Second compound 0.0316 µM
  IC50: 0.0952 µM
Second compound 0.1 µM
  IC50: 0.105 µM
Second compound 0.316 µM
  IC50: 0.0485 µM
Second compound 1 µM
  IC50: < 0.0316 µM
Second compound 3.16 µM
  IC50: < 0.0316 µM
Second compound 10 µM
  IC50: < 0.0316 µM
[1]
  viability, T/C: 59.8%
[2]
  viability, T/C: 48%
[3]
  viability, T/C: 42.8%
[4]
  viability, T/C: 24.6%
[5]
  viability, T/C: 23.5%
[6]
  viability, T/C: 11.2%
[7]
  viability, T/C: 49.5%
[8]
  viability, T/C: 57.9%
[9]
  viability, T/C: 38.2%
[10]
  viability, T/C: 26.6%
[11]
  viability, T/C: 22.3%
[12]
  viability, T/C: 10.1%
[13]
  viability, T/C: 51.5%
[14]
  viability, T/C: 47.9%
[15]
  viability, T/C: 37.2%
[16]
  viability, T/C: 27.7%
[17]
  viability, T/C: 18.8%
[18]
  viability, T/C: 8.98%
[19]
  viability, T/C: 38.5%
[20]
  viability, T/C: 36.1%
[21]
  viability, T/C: 23.1%
[22]
  viability, T/C: 15.7%
[23]
  viability, T/C: 11.3%
[24]
  viability, T/C: 4.12%
[25]
  viability, T/C: 12.3%
[26]
  viability, T/C: 14.2%
[27]
  viability, T/C: 6.28%
[28]
  viability, T/C: 0.12%
[29]
  viability, T/C: 0.15%
[30]
  viability, T/C: 0.09%
[31]
  viability, T/C: 0.8%
[32]
  viability, T/C: 0.14%
[33]
  viability, T/C: 0.17%
[34]
  viability, T/C: 0.18%
[35]
  viability, T/C: 0.19%
[36]
  viability, T/C: 0.13%
